Data published in ChEMBL document CHEMBL1201862, “PubChem BioAssay data set” (2004).
Each block holds one molecule with its values, some of them ahead of it. Active and inactive are the calls of the source.

How the values were obtained:
[1] = target: T1, Oxysterols receptor LXR-beta (Homo sapiens, UniProt P55055); format: functional, cell-based;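 note: Cell-based luminescence dose-response assay of agonist activity at LXR, run as a confirmatory counterscreen to a daf-12 agonist screen; agonist potency from rising luciferase signal of a Gal4-LXR reporter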
T1 sequence (P55055 whole entry): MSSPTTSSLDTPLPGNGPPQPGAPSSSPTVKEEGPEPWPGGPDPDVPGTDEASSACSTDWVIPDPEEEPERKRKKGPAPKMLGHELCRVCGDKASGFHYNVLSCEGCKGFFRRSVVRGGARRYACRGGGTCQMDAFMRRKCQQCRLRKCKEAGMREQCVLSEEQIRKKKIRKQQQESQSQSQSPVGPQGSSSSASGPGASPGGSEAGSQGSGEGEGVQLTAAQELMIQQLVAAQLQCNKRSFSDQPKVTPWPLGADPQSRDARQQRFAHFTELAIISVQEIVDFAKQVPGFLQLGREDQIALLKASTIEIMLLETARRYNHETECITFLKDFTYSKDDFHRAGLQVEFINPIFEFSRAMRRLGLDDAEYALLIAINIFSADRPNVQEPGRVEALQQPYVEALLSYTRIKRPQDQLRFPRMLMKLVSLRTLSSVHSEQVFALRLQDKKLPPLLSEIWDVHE

HT-1080 = experiment: cytotoxicity in HT1080 fibrosarcoma cells, cell-based, fluorescence readout (AID 620); format: functional; details: Homo sapiens
[2] = target: Luciferin 4-monooxygenase (Photinus pyralis, UniProt P08659); experiment: Counter Screen for Luciferase-based Assay Positives. [Related pubchem assays: 620, 618, 411 ]
Cytochrome P450 3A4 = Cytochrome P450 3A4 (Homo sapiens, UniProt P08684); details: Potency;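 note: confirmatory qHTS run detecting inhibitors and substrates of CYP3A4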
Paired box protein Pax-8 = Paired box protein Pax-8 (Homo sapiens, UniProt Q06710); experiment: inhibitors of PAX8-driven TPO luciferase reporter, dose response, RMG-I cells, cherry-pick (AID 687027); format: functional, cell-based;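 note: luciferase reporter driven by Pax8 target thyroperoxidase promoter measured by SteadyGlo luminescence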
[3] = NIH:OVCAR-3 ovarian cancer cell cytotoxicity, dose response, PAX8 inhibitor project, plate reader, dry powder samples (AID 743044); format: functional, cell-based
[4] = cytotoxicity in OVCAR8 ovarian cancer cells, dose response, PAX8 project, cell-based, plate reader, dry powder samples (AID 743197); format: functional; details: OVCAR-8
Kallikrein-7 = Kallikrein-7 (Homo sapiens, UniProt P49862); experiment: Fluorescence Intensity-based biochemical primary high throughput dose response assay to identify activators of kallikrein-7 (K7) zymogen.
[5] = P. falciparum Dd2 growth inhibitors, dose response, SYBR Green, dry powder samples, set 9 (AID 1159568); format: functional, cell-based
[6] = target: Voltage-gated inwardly rectifying potassium channel KCNH2 (Homo sapiens, UniProt Q12809); experiment: hERG protection from proarrhythmic block, potency, dose response, cell-based, thallium flux (AID 2121); format: ADME
[7] = A2780 ovarian cancer cell cytotoxicity, dose response, cytotoxicity control, plate reader, dry powder samples (AID 743046); format: functional, cell-based
[8] = Luminescence-based cell-based high throughput dose response assay to identify activators of the DAF-12 from the parasite S. stercoralis (ssDAF-12).; format: functional
[9] = target: T1, Oxysterols receptor LXR-beta; experiment: LXR agonists, Gal4 luciferase reporter, dose response, counter-screen for ssDAF-12 agonist project, cell-based, luminescence, HEK293, S. stercoralis campaign (AID 720737); format: functional; details: read-out: IC50 (the source's name)
[10] = Late-stage results from the probe development effort to identify antagonists of arginine vasopressin receptor 1a (AVPR1a): fluorescence-based cell-based dose response OXTR inhibition counterscreen assay.; format: functional
Vasopressin V2 receptor = Vasopressin V2 receptor (Homo sapiens, UniProt P30518); experiment: Late-stage results from the probe development effort to identify antagonists of arginine vasopressin receptor 1a (AVPR1a): fluorescence-based cell-based dose response AVPR2 inhibition counterscreen assay.; format: functional
[11] = Late-stage results from the probe development effort to identify antagonists of arginine vasopressin receptor 1a (AVPR1a): fluorescence-based cell-based dose response AVPR1a inhibition assay.; format: functional
Vasopressin V1b receptor = Vasopressin V1b receptor (Homo sapiens, UniProt P47901); experiment: Late-stage results from the probe development effort to identify antagonists of arginine vasopressin receptor 1a (AVPR1a): fluorescence-based cell-based dose response AVPR1b inhibition counterscreen assay.; format: functional
[12] = target: FAD-linked sulfhydryl oxidase ALR (Homo sapiens, UniProt P55789); experiment: inhibitors of human ALR sulfhydryl oxidase, dose response, biochemical, H2O2 detection, luminescence, cherry-pick (AID 493248)
[13] = cytotoxicity in KRAS-transformed pancreatic duct cells, primary screen, cell-based, fluorescence, HTS (AID 431); format: functional; details: Homo sapiens;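 note: cell line used: HPDE-C7K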
[14] = target: Heat shock protein HSP 90-alpha (Homo sapiens, UniProt P07900); format: functional, organism-based
[15] = target: Mitogen-activated protein kinase 10 (Homo sapiens, UniProt P53779); experiment: Dose response biochemical screening assay for inhibitors of c-Jun N-Terminal Kinase 3 (JNK3). [Related pubchem assays: 746 ]
[16] = cytotoxicity in HPDE-C7 cells, cell-based, fluorescence, HTS (AID 430); format: functional; details: Homo sapiens

Chain of Vasopressin V1b receptor (P47901 whole entry): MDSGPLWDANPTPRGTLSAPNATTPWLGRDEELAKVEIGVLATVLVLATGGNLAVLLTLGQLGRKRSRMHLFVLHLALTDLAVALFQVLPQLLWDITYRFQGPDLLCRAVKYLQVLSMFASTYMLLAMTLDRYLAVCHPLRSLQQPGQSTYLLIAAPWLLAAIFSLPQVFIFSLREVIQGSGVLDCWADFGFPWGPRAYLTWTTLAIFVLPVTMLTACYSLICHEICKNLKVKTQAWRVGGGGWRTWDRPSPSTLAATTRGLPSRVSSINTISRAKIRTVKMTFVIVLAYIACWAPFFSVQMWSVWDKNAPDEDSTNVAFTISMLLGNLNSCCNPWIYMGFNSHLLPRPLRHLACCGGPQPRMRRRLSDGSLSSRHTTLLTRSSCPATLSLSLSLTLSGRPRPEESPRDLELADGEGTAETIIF
Chain of Vasopressin V2 receptor (P30518 whole entry): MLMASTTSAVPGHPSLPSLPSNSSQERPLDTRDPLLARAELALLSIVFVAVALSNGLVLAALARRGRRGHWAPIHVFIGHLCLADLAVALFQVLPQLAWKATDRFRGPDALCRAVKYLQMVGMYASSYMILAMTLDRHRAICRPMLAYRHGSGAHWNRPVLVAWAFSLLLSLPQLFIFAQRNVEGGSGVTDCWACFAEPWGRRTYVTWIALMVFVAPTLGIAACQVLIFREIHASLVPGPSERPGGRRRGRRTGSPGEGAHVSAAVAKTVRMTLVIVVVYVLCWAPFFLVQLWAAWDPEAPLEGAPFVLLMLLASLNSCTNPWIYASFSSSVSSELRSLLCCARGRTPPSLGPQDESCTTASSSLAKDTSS
Chain of Paired box protein Pax-8 (Q06710 whole entry): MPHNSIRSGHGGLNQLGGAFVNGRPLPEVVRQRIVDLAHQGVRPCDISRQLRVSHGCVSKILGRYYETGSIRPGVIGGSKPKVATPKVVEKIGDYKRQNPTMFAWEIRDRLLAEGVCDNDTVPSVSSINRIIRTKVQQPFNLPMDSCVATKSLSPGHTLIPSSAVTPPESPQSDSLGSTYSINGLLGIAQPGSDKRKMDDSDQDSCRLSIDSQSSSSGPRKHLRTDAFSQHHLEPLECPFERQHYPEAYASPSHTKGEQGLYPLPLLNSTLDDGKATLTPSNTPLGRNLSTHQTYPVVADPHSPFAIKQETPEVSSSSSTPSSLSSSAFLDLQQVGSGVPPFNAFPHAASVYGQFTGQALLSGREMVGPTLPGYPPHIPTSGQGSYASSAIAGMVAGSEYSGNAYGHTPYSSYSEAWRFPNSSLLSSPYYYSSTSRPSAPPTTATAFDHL
Chain of Cytochrome P450 3A4 (P08684 whole entry): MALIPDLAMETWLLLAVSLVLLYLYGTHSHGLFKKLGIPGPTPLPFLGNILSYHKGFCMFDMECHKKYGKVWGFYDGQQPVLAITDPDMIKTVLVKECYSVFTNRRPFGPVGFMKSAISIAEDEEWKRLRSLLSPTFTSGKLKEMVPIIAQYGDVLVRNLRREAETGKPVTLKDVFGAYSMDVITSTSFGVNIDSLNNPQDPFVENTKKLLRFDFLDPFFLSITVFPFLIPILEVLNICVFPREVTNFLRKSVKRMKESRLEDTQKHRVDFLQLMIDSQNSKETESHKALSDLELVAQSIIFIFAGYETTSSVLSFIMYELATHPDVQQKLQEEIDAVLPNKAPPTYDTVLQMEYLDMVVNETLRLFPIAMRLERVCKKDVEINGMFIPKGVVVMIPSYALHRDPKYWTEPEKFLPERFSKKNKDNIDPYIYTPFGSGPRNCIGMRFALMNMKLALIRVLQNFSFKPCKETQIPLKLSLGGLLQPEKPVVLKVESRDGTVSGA
Chain of Kallikrein-7 (P49862 whole entry): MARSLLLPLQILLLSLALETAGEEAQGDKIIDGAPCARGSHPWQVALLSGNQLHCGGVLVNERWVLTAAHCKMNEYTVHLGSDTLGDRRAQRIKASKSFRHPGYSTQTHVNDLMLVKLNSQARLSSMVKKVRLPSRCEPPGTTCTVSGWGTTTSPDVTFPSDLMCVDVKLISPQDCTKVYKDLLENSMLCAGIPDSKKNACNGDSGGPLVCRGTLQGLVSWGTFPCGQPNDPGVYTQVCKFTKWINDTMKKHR
Chain of Voltage-gated inwardly rectifying potassium channel KCNH2 (Q12809 whole entry): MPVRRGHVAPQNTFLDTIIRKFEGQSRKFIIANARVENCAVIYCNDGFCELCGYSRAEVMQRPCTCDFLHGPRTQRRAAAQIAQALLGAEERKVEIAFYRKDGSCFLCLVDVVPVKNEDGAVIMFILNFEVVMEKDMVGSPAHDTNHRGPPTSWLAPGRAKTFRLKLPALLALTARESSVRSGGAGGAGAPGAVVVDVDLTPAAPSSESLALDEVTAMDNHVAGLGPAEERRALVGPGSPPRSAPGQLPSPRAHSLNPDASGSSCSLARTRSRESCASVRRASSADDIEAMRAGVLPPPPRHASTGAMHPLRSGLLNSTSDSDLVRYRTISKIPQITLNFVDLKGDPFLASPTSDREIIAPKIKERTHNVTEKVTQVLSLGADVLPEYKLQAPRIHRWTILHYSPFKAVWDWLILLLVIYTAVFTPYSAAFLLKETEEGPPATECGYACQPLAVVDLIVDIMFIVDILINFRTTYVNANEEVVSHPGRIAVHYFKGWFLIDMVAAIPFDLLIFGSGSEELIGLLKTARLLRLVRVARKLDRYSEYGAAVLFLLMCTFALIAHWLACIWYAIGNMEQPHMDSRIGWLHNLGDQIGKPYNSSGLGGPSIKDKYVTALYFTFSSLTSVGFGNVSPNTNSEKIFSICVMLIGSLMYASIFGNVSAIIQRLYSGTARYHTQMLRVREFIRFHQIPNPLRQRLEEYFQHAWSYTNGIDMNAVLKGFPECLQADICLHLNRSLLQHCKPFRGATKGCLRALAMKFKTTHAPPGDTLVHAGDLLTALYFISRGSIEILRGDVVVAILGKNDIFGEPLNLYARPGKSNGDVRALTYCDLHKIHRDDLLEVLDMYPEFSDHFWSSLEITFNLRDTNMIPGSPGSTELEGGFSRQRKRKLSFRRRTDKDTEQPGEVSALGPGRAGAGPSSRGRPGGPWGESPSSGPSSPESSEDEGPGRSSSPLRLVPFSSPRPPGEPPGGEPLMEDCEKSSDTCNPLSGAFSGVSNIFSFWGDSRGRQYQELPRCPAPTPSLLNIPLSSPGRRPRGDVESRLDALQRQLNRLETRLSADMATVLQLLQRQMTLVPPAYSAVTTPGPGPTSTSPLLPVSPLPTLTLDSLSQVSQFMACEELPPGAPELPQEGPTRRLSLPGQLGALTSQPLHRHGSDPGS
Chain of FAD-linked sulfhydryl oxidase ALR (P55789 whole entry): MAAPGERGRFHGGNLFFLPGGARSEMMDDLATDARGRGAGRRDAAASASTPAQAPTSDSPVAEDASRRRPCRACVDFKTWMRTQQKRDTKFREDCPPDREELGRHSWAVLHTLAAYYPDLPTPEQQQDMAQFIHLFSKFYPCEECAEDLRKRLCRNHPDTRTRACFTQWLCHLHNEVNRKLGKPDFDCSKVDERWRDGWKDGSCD
Chain of Mitogen-activated protein kinase 10 (P53779 whole entry): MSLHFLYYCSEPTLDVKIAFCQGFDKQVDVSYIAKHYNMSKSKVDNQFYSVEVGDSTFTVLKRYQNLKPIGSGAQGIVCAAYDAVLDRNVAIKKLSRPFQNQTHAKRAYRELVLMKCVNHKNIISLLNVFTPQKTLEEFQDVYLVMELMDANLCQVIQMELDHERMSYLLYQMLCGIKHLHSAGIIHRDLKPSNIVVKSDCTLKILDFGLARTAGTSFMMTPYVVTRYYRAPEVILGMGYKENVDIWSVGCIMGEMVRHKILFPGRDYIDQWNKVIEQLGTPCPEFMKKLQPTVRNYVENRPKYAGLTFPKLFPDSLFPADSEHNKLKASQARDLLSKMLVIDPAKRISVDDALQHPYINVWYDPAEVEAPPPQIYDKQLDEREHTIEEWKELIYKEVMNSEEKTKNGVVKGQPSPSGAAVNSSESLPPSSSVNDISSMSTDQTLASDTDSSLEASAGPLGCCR
Chain of Luciferin 4-monooxygenase (P08659 whole entry): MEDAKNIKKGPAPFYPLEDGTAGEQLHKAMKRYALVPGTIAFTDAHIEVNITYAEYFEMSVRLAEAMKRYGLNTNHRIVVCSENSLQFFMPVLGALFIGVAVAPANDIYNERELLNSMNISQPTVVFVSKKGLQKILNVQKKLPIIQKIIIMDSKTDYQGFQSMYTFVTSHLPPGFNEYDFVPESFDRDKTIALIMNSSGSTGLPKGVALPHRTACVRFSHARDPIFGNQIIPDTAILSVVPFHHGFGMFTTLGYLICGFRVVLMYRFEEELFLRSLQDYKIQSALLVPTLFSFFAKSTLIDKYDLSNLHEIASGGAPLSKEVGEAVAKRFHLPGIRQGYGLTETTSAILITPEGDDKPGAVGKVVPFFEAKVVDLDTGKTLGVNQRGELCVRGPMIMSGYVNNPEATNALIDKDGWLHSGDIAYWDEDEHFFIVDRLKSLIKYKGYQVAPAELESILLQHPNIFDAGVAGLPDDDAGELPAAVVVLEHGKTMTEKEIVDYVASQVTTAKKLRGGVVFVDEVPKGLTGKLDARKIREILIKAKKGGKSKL

Compound: Cc1ccc(-c2nc3cc(C)ccc3o2)cc1
EC50 [1]: > 67.5 µM (inactive)
EC50 (cells): > 67.5 µM (inactive)
EC50 (HT-1080): > 50 µM (not active)
EC50 [2]: 1.59 µM (active)

AC50 (Cytochrome P450 3A4): 31.6 µM (inconclusive)
Compound: CC(=O)O[C@](C)(CCC=C(C)C)C1CC=C(C)CC1 (stereo partly specified)

Compound: C[C@@H]1CN([C@H](C)CO)C(=O)c2cc(NC(=O)Cc3ccccc3)ccc2O[C@@H](C)CCCCO[C@@H]1CN(C)Cc1ccc(C(F)(F)F)cc1
AC50 (Paired box protein Pax-8): 7.22 µM (active)
AC50 [3]: 17.5 µM (active)
AC50 [4]: 43.2 µM (active)

EC50 (Kallikrein-7): 65.6 µM (inactive)
Compound: Cc1cccc(C(=O)/N=c2/c(C#N)cc3c(=O)n4cccc(C)c4nc3n2Cc2ccco2)c1

Compound: CCCNC(=O)N1[C@H](C#N)[C@H](c2ccccc2C2=CCCCC2)[C@@H]1CO
AC50 [5]: 7.06 µM (active)

Compound: O=C(COc1ccccc1Cl)NC(=S)Nc1ccccc1N1CCCC1
EC50 [6]: 1.56 µM (active)

Compound: C[C@@H]1CCCCO[C@@H](CN(C)Cc2ccc(C(F)(F)F)cc2)[C@H](C)CN([C@H](C)CO)C(=O)c2cc(NC(=O)Nc3ccccc3)ccc2O1
AC50 (Paired box protein Pax-8): 4.86 µM (active)
AC50 [3]: 28.1 µM (active)
AC50 [4]: 36 µM (active)
AC50 [7]: 57 µM (active)

AC50 (Cytochrome P450 3A4): 20 µM (inconclusive)
Compound: COC(=O)c1ccc(C23CC4(C2)[C@H](CN(C)[C@@H]4c2ccccc2)C3c2ccc(Cl)nc2)cc1 (stereo partly specified)

Compound: COc1ccc(Nc2nc(N)nc(CSC(=S)N3CCN(C)CC3)n2)cc1
IC50 [8]: > 67.6 µM (inactive)
EC50 [9]: > 67.6 µM (inactive)

Compound: N#Cc1cccnc1N1CCN(C(=O)N(CC2CC2)c2ccc(Cl)cc2)CC1
IC50 [10]: > 50 µM (inactive)
IC50 (Vasopressin V2 receptor): > 50 µM (inactive)
IC50 [11]: 0.0806 µM (active)
IC50 (Vasopressin V1b receptor): > 50 µM (inactive)

Compound: Cc1cccnc1N1CCC(C(=O)N(CC2CC2)c2ccc(Cl)cc2)CC1
IC50 [10]: 2.6 µM (active)
IC50 (Vasopressin V2 receptor): 15.7 µM (inactive)
IC50 [11]: 0.0075 µM (active)
IC50 (Vasopressin V1b receptor): 12.6 µM (inactive)

Compound: Clc1ccc2[nH]c3c(c2c1)CCc1c[nH]nc1-3
AC50 [12]: 0.129 µM (active)
EC50 [13]: 18.1 µM (active)
AC50 [14]: 7.8 µM (active)
IC50 [15]: 2.16 µM (active)
EC50 [16]: 15 µM (active)
